Experimental data as given in a melting point compilation (Tetko et al.; mined from patent text by program, amines drawn as free bases though some values may be those of a salt).

Structure (SMILES)	melting point [°C]
CCN1CCN2C1=Nc1ccc(Cl)cc1C2c1ccccc1 (centres undefined)	145 to 146
CCC(=O)Oc1cc(-c2nc3cc(C(=O)O)ccc3oc2=O)cc([N+](=O)[O-])c1OC(=O)CC	192 to 194
CC(C)Oc1cccc2c1C1=NCCN1c1c(-c3noc(C4CC4)n3)ncn1-2	211 to 214
COC(=O)NC(=O)c1ccc(C=NO)cc1C	141 to 143
CCC(CC)n1nc2c(C(F)(F)F)cccc2c1-c1ccc(OC)cc1OC	138 to 139
Cc1cc(C(O)(c2ccc(Cl)cc2)C(F)(F)F)ccc1N (centres undefined)	157 to 160
COc1ccccc1C1=Nc2ccc(N3CCCC3)cc2C(=O)C1	312 to 313
CCCCOCCOc1ccc(-c2ccc3c(c2)C=C(C(=O)Nc2ccc(S(=O)Cc4ncon4)cc2)CCN3CC(C)C)cc1 (centres undefined)	142 to 144
O=C(Nc1c[nH]nc1C(=O)NC1CCCCC1)c1ccccn1	262 to 263
COc1ccc2c(c1)NCC(c1ccccc1)O2 (centres undefined)	95 to 100
CCc1cn(C2CC(N=[N+]=[N-])C(CO)O2)c(=O)[nH]c1=O (centres undefined)	118 to 120
OCc1cn(-c2ccc(Cl)c(Cl)c2)cn1	146 to 147
C[C@H](NC(=O)CC(Br)C(=O)c1ccc(Br)cc1)C(=O)O (some centres undefined)	110 to 113
CS(=O)(=O)c1ccc(-c2sc(-c3ccccc3Cl)nc2-c2ccc(Cl)cc2)cc1	177 to 179
CCOC(=O)c1c(NC=CC(=O)C(C)C)sc(-c2ccc(OC)cc2)c1C	121 to 122
O=C(O)C1CN(S(=O)(=O)c2ccc3cc(Cl)ccc3c2)CCN1C(=O)C1CCN(c2ccncc2)CC1 (centres undefined)	215 to 220
COc1ccc2c(c1)CCC1CCNC(=O)C(CC(C)=NO)=C21 (centres undefined)	216 to 218
N#Cc1ccc(NN)cc1	84 to 87
Clc1nc(Cl)c2ncn(C3CC3)c2n1	121 to 124
O=C(O)c1cc(N2C(=O)CCC2=O)cc([N+](=O)[O-])c1	285 to 290
CCCC[C@H]1CC[C@H](c2ccc(CCc3ccc(OC(F)F)cc3)cc2)CC1	32
CCn1ncnc1COc1nn2c(-c3ccccc3F)nncc2c1-c1ccccc1F	164
COc1ccc(C)cc1NC(=O)Nc1ccc2c(c1)CCN(C(=O)Oc1ccc(C(=O)O)cc1Cl)C2	196 to 198
COc1cc(C(=O)O)ccc1C(F)(F)F	203 to 204
Nc1nnc(-c2ccnc3[nH]c(CCc4ccccc4)cc23)o1	234 to 235

Structure (SMILES)	melting point [°C]
CCCCCCCCCCCCCCc1ccc(C(=O)OCC)[nH]1	60 to 63
COC(=O)C1(C(=O)O)CCc2cc(C3CCCCCC3)ccc21 (centres undefined)	140 to 141
CSc1nc(C(C)(C)C)nn1C(=O)N(C)C	51 to 53
OC(=S)c1cc(C(F)(F)F)ccc1O	122 to 125
Cc1cc2c(c(S(N)(=O)=O)n1)C(=O)OC2	211 to 213
c1ccc(N2CCN(Cc3ccc4ccccc4c3)CC2)nc1	124 to 126
Cn1cc(C2=C(c3cn(C)c4cc([N+](=O)[O-])ccc34)C(=O)N(CO)C2=O)c2ccccc21	209 to 211
CC(=O)OC(C(=O)c1cccnc1)c1cccnc1 (centres undefined)	136 to 138
CO[C@H]([C@@H](C)C(=S)NCCc1ccccc1)[C@@H]1CCCN1C(=O)OC(C)(C)C	107 to 109
COc1ccc(-n2c(=O)n(O)c(=O)c3cc(F)c(N4CCCC4)cc32)cc1	224 to 226
C#CC(CC)(CC)NC(=O)C(CCN1CCN(c2ccccc2OC)CC1)c1ccccc1 (centres undefined)	110 to 112
O=C1NCN(c2ccccc2)C12CCN(CCCC1(c3ccc(F)cc3F)OCCO1)CC2	58 to 62
O=CN(O)C(COCc1ccccc1)CS(=O)(=O)N1CCN(c2cc(Cl)ncn2)CC1 (centres undefined)	118 to 120
CSc1cc(-c2ccc(C(F)(F)F)cc2)nc(-c2cccc(C(F)(F)F)c2)c1	98.5
C1=C(c2ccccc2)CCN(c2nsc3ccccc23)C1	272 to 273
FC(F)(F)c1onc(-c2ccc(Cl)o2)c1-c1ccccc1	55 to 57
COc1ncccc1Nc1c(NC(NC(=O)c2cc(F)cc(F)c2)C(C)(C)C)c(=O)c1=O (centres undefined)	221 to 223
CCCCc1nc(Cl)c(C(N)=O)n1Cc1ccc2oc(-c3ccccc3-c3nnn[nH]3)c(Br)c2c1	131 to 133
CCC(C(C)=CC(CNC(=O)C1=NNC(=O)CC1)=NO)[N+](=O)[O-] (centres undefined)	129 to 130
COc1ccccc1SCC(O)CN(C)Cc1cc2c(=O)c(C(=O)NCc3ccc(Cl)cc3)cn(C)c2o1 (centres undefined)	145 to 147
Cc1ccc2ncc(C)cc2c1	50
c1ccc2cc(OCCCCCCCCOc3ccc4ccccc4c3)ccc2c1	125 to 126
COc1cc2c(cc1N)CCCC2	121
CCOC(=O)C1=C(C)NC(C(F)F)=C(C(=O)OCC)C1c1cccc([N+](=O)[O-])c1 (centres undefined)	148 to 149
CC1=CC(=O)C(=Cc2ccc(O)cc2O)O1	239 to 242

Structure (SMILES)	melting point [°C]
O=C(NCc1ccc(Cl)cc1)c1cn2c3c(cc(C#CCO)cc3c1=O)CC2CO (centres undefined)	224 to 225
CCCCCCCN(CC)C(=O)Cc1ccc(N)cc1	172 to 174
Oc1ccc2cc(-c3nc(-c4ccccc4)sc3Br)ccc2c1Br	198 to 200
CS(=O)(=O)c1ccc(-c2cnn(CC(F)(F)F)c(=O)c2NCCC#N)cc1	172 to 174
[N-]=[N+]=NC1CCc2ccccc2C1NC(=O)OCc1ccccc1 (centres undefined)	104
[N-]=[N+]=NC1=CN(CC(F)(F)F)c2ccccc2C(c2ccccc2)=N1	159 to 160
CC(C)(C)C(=O)C=Cc1ccc(C2OCCO2)cc1	79 to 81
Cc1ncn(-c2cc(C)c3[nH]c(=O)ccc3c2)c1[N+](=O)[O-]	306 to 309
O=C1c2ccccc2C(=O)N1c1ccc(Cl)c2c1CC(CO)O2 (centres undefined)	181 to 183
CCCOC(=NNC(=O)OC)OCCC	38.1 to 38.3
COc1ccc(-n2c(=O)cc(C(F)(F)F)n(C)c2=O)c2c1C(=O)C(C)(C)O2	222 to 224
CCCn1nc(SCCCCCCC(=O)O)c(C(=O)O)c1Cc1cc2c(cc1Cl)OCO2	180
CS(=O)(=O)c1ccc(-c2ccc3cnc(Nc4ccc(N5CCCCC5)cc4)nn23)cc1	204 to 209
O=C1N(c2ccccc2)c2ccccc2C1(Cc1ccccn1)Cc1ccccn1	107 to 111
Cc1cc(CCCCCOc2ccc(-c3ccco3)cc2)on1	86 to 88
CCCN(CCC)C(=O)Cn1c(-c2ccc(Br)cc2)nc2cccnc21	153 to 155
Cc1nccn1-c1ccc(-c2cnc([C@H](Cc3ccccn3)N(C=O)c3cc4cc(Cl)ccc4o3)n2C)cc1	159 to 161
COc1ccc(Nc2nc(=O)cc(N)n2-c2ccccc2)cc1	213 to 216
CCOC(=O)c1c(SC)sc2c(F)c(F)c(F)cc2c1=O	113 to 115
[N-]=[N+]=NC(C(=O)O)C1c2ccccc2C=Cc2ccccc21 (centres undefined)	119 to 120
CCCCc1c2c(nc3c1CCCC3)CCCC2	35 to 37
Nc1ccc(OCC2CN(c3ccccn3)C(=O)O2)cc1 (centres undefined)	141 to 143
Cc1ccc(S(=O)(=O)N2CCCC2c2ccncc2)cc1 (racemic)	158
C=CCN1C(C(=O)Nc2coc3ccccc3c2=O)C(=O)c2ccccc2S1(=O)=O (centres undefined)	218 to 220
CC(C)Oc1cccc(N(C)C(=O)N(C)Cc2c(-c3ccccc3)c3cc(Cl)ccc3c(=O)n2C)c1	143 to 144

Structure (SMILES)	melting point [°C]
CC(C)Oc1c(-c2ccc(S(C)(=O)=O)cc2)cnn(CC(F)(F)F)c1=O	152 to 153
CNC(c1ccc(O)cc1)c1csc(S(N)(=O)=O)c1 (centres undefined)	127 to 129
CC(C)(C)OC(=O)N1CC[C@H](c2ccc3c(c2)OCO3)[C@@H](O)C1 (racemic)	112
CCCCCCCCCCCCCCCCCCOc1cc(OCCCOc2ccc(S(C)=O)cc2)cc(C(=O)O)c1 (centres undefined)	77 to 80
CN=C(O)c1cc([N+](=O)[O-])cc([N+](=O)[O-])c1C(=O)O	174 to 176
Nc1nc(N)nc(-c2ccc(NS(=O)(=O)c3cc(Cl)ccc3Cl)cc2)n1	230 to 233
O=C(O)Cc1cc(C(=O)C=Cc2ccc(Cl)cc2)ccc1O	244
Cc1cc(C2CCN(S(=O)(=O)C(C)(C)C(=O)NO)CC2)ccc1-c1cccc(OC[C@@H](O)CO)c1	152 to 154
CCOC(=O)COc1ccc([N+](=O)[O-])cc1OC	87 to 88
CCOC(=O)CC(=O)c1cc(F)c(OP(=O)(OCC)OCC)nc1Nc1ccc(F)cc1F	127 to 130
O=C(NC1CCCC1)n1cc(F)c(=O)[nH]c1=O	137
O=C(C=Cc1ccc(O)c(O)c1)C=Cc1ccc(O)c(O)c1	221 to 223
Cc1cc2c(-c3ccccc3)nc(N3CCN(CC(O)c4ccc(F)cc4)CC3)nc2s1 (centres undefined)	180 to 182
CCOC(=O)Cc1ccc(NC(=O)C(COc2ccccc2)NS(=O)(=O)c2ccc(I)cc2)cc1 (racemic)	178 to 180
COc1c(Cl)cc2c(Cl)nc(Cl)nc2c1OC	154 to 155
O=C1OCCN1c1ccc([N+](=O)[O-])cc1Cl	94 to 96
CCOC(=O)c1cc(C(C)=O)c(=O)[nH]c1C(=O)OCC	101 to 110
N#Cc1cc(F)c(F)cc1N	114
CC1(C)COc2c1cc(C=O)c(O)c2Br	152 to 154
CC(C)(C)c1cccc(S(=O)(=O)n2c(Cc3ccc(C(=O)O)cc3)c(F)c3cc(C(F)(F)F)ccc32)c1	158
C(=Cc1ccc2c(c1)Sc1ccccc1N2c1ccccc1)c1ccc(-c2ccc(C=Cc3ccc4c(c3)Sc3ccccc3N4c3ccccc3)cc2)cc1	278 to 290
O=C1Nc2ccc(Cl)cc2C1c1ncnc2c1cnn2C1CCCC1 (centres undefined)	304 to 306
O=C(CCN1CCOCC1)NCc1ccc2c(c1)Cc1c(-c3ccsc3)n[nH]c1-2	205 to 207
CC(=C1SCCCS1)c1ccc(Sc2ccc(O)cc2)cc1	113 to 114
